Assays:
[1] = test system: Fusobacterium nucleatum subsp. Nucleatum; experiment: IC25 growth inhibition; higher = less potent
Outline: (§1)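 Under anaerobic conditions, OD578 was read hourly in a plate reader for at least three biological replicates of monocultures grown overnight in mGAM. Each culture started at an OD578 of 0.01 in pre-reduced plates holding twofold drug dilutions and 1% DMSO (or water). IC25 was reported as a tested interval: the lowest concentration where the monotonic median area under the growth curve dropped below the cutoff. That cutoff was 0.75.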

Escherichia coli ED1a = experiment: IC25 growth inhibition; higher = less potent
Outline: as §1

Roseburia intestinalis = experiment: IC25 growth inhibition; higher = less potent
Outline: as §1

[2] = test system: Salmonella enterica typhimurium; experiment: IC25 growth inhibition; higher = less potent
Outline: as §1

[3] = test system: Streptococcus parasanguinis; experiment: IC25 growth inhibition; higher = less potent
Outline: as §1

Clostridium ramosum = experiment: IC25 growth inhibition; higher = less potent
Outline: as §1

Bacteroides fragilis NT = experiment: IC25 growth inhibition; higher = less potent
Outline: as §1

[4] = test system: Yersinia pseudotuberculosis; experiment: IC25 growth inhibition; higher = less potent
Outline: as §1

Eubacterium rectale = experiment: IC25 growth inhibition; higher = less potent
Outline: as §1

[5] = test system: Clostridium saccharolyticum; experiment: IC25 growth inhibition; higher = less potent
Outline: as §1

Ruminococcus gnavus = experiment: IC25 growth inhibition; higher = less potent
Outline: as §1

Clostridium bolteae = experiment: IC25 growth inhibition; higher = less potent
Outline: as §1

Bacteroides uniformis = experiment: IC25 growth inhibition; higher = less potent
Outline: as §1

Clostridium perfringens = experiment: IC25 growth inhibition; higher = less potent
Outline: as §1

Collinsella aerofaciens = experiment: IC25 growth inhibition; higher = less potent
Outline: as §1

Streptococcus salivarius = experiment: IC25 growth inhibition; higher = less potent
Outline: as §1

[6] = test system: Yersinia enterocolitica WA-314; experiment: IC25 growth inhibition; higher = less potent
Outline: as §1

Parabacteroides merdae = experiment: IC25 growth inhibition; higher = less potent
Outline: as §1

Vibrio cholerae = experiment: IC25 growth inhibition; higher = less potent
Outline: as §1

Dorea formicigenerans = experiment: IC25 growth inhibition; higher = less potent
Outline: as §1

Bacteroides vulgatus = experiment: IC25 growth inhibition; higher = less potent
Outline: as §1

Coprococcus comes = experiment: IC25 growth inhibition; higher = less potent
Outline: as §1

[7] = test system: Bacteroides thetaiotaomicron; experiment: IC25 growth inhibition; higher = less potent
Outline: as §1

Shigella flexneri = experiment: IC25 growth inhibition; higher = less potent
Outline: as §1

[8] = test system: Com21 synthetic gut community; experiment: community biomass OD578 after 24 h drug treatment relative to untreated (fraction of untreated control); higher = more community growth; settings: community: Com21 (Com20 + E. coli ED1a)
Experimental: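 Com21 (Com20 plus E. coli ED1a) was treated with drug for 24 h under anaerobic conditions in mGAM. Community OD578 was then measured and normalised to untreated Com21; mean of 3 biological replicates.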

[9] = drug pretreatment concentration 2.5 µM
[10] = drug pretreatment concentration 5 µM
[11] = drug pretreatment concentration 10 µM
[12] = drug pretreatment concentration 20 µM
[13] = drug pretreatment concentration 40 µM
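Wherever IC25 growth inhibition is given: lowest concentration where monotonic median growth AUC falls below 0.75 of drug-free control.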

SMILES	IC25 growth inhibition [1]	IC25 growth inhibition (Escherichia coli ED1a)	IC25 growth inhibition (Roseburia intestinalis)	IC25 growth inhibition [2]	IC25 growth inhibition [3]	IC25 growth inhibition (Clostridium ramosum)	IC25 growth inhibition (Bacteroides fragilis NT)	IC25 growth inhibition [4]	IC25 growth inhibition (Eubacterium rectale)	IC25 growth inhibition [5]	IC25 growth inhibition (Ruminococcus gnavus)	IC25 growth inhibition (Clostridium bolteae)	IC25 growth inhibition (Bacteroides uniformis)	IC25 growth inhibition (Clostridium perfringens)	IC25 growth inhibition (Collinsella aerofaciens)	IC25 growth inhibition (Streptococcus salivarius)	IC25 growth inhibition [6]	IC25 growth inhibition (Parabacteroides merdae)	IC25 growth inhibition (Vibrio cholerae)	IC25 growth inhibition (Dorea formicigenerans)	IC25 growth inhibition (Bacteroides vulgatus)	IC25 growth inhibition (Coprococcus comes)	IC25 growth inhibition [7]	IC25 growth inhibition (Shigella flexneri)	community biomass OD578 [8, 9]	community biomass OD578 [8, 10]	community biomass OD578 [8, 11]	community biomass OD578 [8, 12]	community biomass OD578 [8, 13]	community biomass OD578 ([8]; drug pretreatment concentration 80 µM)	community biomass OD578 ([8]; drug pretreatment concentration 160 µM)
Clc1ccccc1C(c1ccccc1)(c1ccccc1)n1ccnc1 [Clotrimazole]	> 40 µM	> 40 µM	≤ 10 µM	> 80 µM	> 80 µM	≤ 20 µM	≤ 80 µM	> 20 µM	≤ 10 µM	≤ 40 µM	≤ 20 µM	≤ 80 µM	≤ 80 µM	> 80 µM	≤ 40 µM	> 80 µM	> 80 µM	≤ 40 µM	> 80 µM	≤ 10 µM	≤ 80 µM	≤ 5 µM	≤ 80 µM	> 80 µM	0.969	0.989	1.03	1	0.976	–	–
CC(=O)Oc1cccc2c1C(=O)c1c(OC(C)=O)cc(C(=O)O)cc1C2=O [Diacerein]	≤ 10 µM	> 160 µM	< 1.25 µM	> 160 µM	≤ 10 µM	≤ 10 µM	≤ 2.5 µM	≤ 160 µM	< 1.25 µM	≤ 2.5 µM	≤ 10 µM	≤ 2.5 µM	≤ 5 µM	≤ 20 µM	≤ 2.5 µM	≤ 10 µM	> 160 µM	< 1.25 µM	≤ 40 µM	< 1.25 µM	≤ 2.5 µM	≤ 20 µM	≤ 2.5 µM	> 160 µM	–	–	0.936	0.913	0.728	0.337	0.284
O=c1oc2ccccc2c(O)c1Cc1c(O)c2ccccc2oc1=O [Dicumarol]	≤ 80 µM	> 40 µM	> 80 µM	> 80 µM	≤ 10 µM	≤ 40 µM	≤ 20 µM	> 80 µM	> 80 µM	≤ 40 µM	≤ 80 µM	> 80 µM	≤ 20 µM	≤ 20 µM	> 80 µM	≤ 20 µM	> 80 µM	≤ 80 µM	≤ 80 µM	> 80 µM	≤ 20 µM	> 80 µM	≤ 80 µM	> 80 µM	0.966	0.965	0.958	0.956	0.962	–	–
C/C=C(/C(=C/C)c1ccc(O)cc1)c1ccc(O)cc1 [Dienestrol]	> 40 µM	> 40 µM	≤ 40 µM	> 40 µM	> 40 µM	≤ 40 µM	≤ 10 µM	> 40 µM	≤ 20 µM	≤ 40 µM	≤ 5 µM	> 40 µM	≤ 40 µM	≤ 20 µM	> 40 µM	≤ 40 µM	> 40 µM	≤ 40 µM	≤ 40 µM	≤ 10 µM	≤ 40 µM	≤ 10 µM	≤ 20 µM	> 40 µM	0.981	1.03	0.997	0.972	0.894	–	–
